Measurements: patent US20100093536A1, “CONTROL OF GRASSY WEEDS WITH VINYLGLYCINES AND VINYLGLYCINE-PRODUCING ORGANISMS” (THE STATE OF OREGON ACTING BY AND THROUGH THE STATE BOARD …, priority 2008, published 2010)

Test system: Poa annua (annual bluegrass) seeds
Assay: Standard GAF Bioassay System (Standard Poa Bioassay), seed germination scored after 7 days
Assay type: in vivo
Design: key to GERMINATION SCORE IN THE POA BIOASSAY (±Standard Error of the Mean) / GERMINATION SCORE (±Standard Error of the Mean): germination score, 0 = no germination to 4.0 = first true leaf emerged
Method: The seed of Poa annua (or other test seeds) were surface-sterilized by placing two to five grams of seeds in a 50 ml glass beaker, covering the seeds with a 50% (v/v) solution of H2SO4, and stirring vigorously for 5 minutes. The seed/acid mixture was filtered through a Gooch crucible and repeatedly rinsed with tap water to remove residual acid. The seeds were then placed in a beaker and covered with bleach (Clorox®, NaOCl, 5.25%) containing 1% (v/v) polyoxethylene sorbitan monolaurate (Tween®-20). The seeds were stirred for 5 minutes and then repeatedly rinsed with sterile deionized water and placed in a sterile Petri dish. The seeds were used immediately while wet or dried (spread in a thin layer and allowed to dry under a laminar flow hood with the Petri dish lid ajar for 4 to 8 hours) to prevent premature germination.
Bioassays for GAF activity were performed with Poa annua (annual bluegrass) seeds unless otherwise indicated. For each concentration of each test solution, 200 μl aliquots of solution were distributed to each of three wells of a sterile Costar® forty-eight well tissue culture plate (Corning® Costar® Number 3548). Three surface-sterilized Poa annua seeds were aseptically transferred to each well and submerged in the liquid, providing a total of nine observations for each concentration of each solution tested. The lid of the tissue culture plate was sealed with Parafilm® and the plate was placed in a germinator at 20° C. (8 hour day length at a light intensity of 50 μmol/m^2/s, 16 hour dark period) for seven days. Germination was scored on the basis of the following four-point system: • Score 0: No visible signs of germination. • Score 0.5: Seed coat split but plumule and coleorhiza are not visible. • Score 1.0: Plumule and coleorhiza visible. Plumule chlorotic and shorter than length of seed. Root not yet visible. • Score 1.5: Plumule still shorter than length of seed, but root is clearly visible. • Score 2.0: Plumule approximately equal in length to the seed. Root elongated. • Score 2.5: Plumule obviously longer than length of seed. First true leaf still enclosed in coleoptile. • Score 3.0: First true leaf emerged from coleoptile and green. Emerged portion of the leaf is obviously shorter than the coleoptile. • Score 3.5: First true leaf emerged from coleoptile and green. Emerged portion of the leaf is approximately equal in length to the coleoptile. • Score 4.0: First true leaf emerged from coleoptile and green. Emerged portion of the leaf is obviously longer than the coleoptile.

[1] = GAF Conc. 0, metal 12.5 μM, score 4.0 = normal germination, 1.0 = arrest
[2] = GAF Conc. 2X plus metal 12.5 μM
[3] = WH6 culture filtrate 0, amino acid 0.3 mM
[4] = WH6 culture filtrate 0, amino acid 1 mM
[5] = WH6 culture filtrate 0, amino acid 3 mM
[6] = WH6 culture filtrate 0, amino acid 10 mM
[7] = WH6 culture filtrate 0, amino acid 30 mM
[8] = WH6 culture filtrate 0.1X plus amino acid 0.3 mM
[9] = WH6 culture filtrate 0.1X plus amino acid 1 mM
[10] = WH6 culture filtrate 0.1X plus amino acid 3 mM
[11] = WH6 culture filtrate 0.1X plus amino acid 10 mM
[12] = WH6 culture filtrate 0.1X plus amino acid 30 mM

For `O=S(=O)([O-])[O-].[Fe+2]` [FeSO4], the “POA BIOASSAY SCORES (±Standard Error of the Mean)” value [1] was 4.00 ± 0.00, the “POA BIOASSAY SCORES (±Standard Error of the Mean)” value (GAF Conc. 0, metal 25 μM) was 3.50 ± 0.13 and the “POA BIOASSAY SCORES (±Standard Error of the Mean)” value (GAF Conc. 0, metal 50 μM) was 3.00 ± 0.00. The “POA BIOASSAY SCORES (±Standard Error of the Mean)” value (GAF Conc. 0, metal 100 μM) was 2.86 ± 0.44, the “POA BIOASSAY SCORES (±Standard Error of the Mean)” value (GAF Conc. 0, metal 200 μM) was 2.47 ± 0.07 and the “POA BIOASSAY SCORES (±Standard Error of the Mean)” value [2] was 1.00 ± 0.00. The “POA BIOASSAY SCORES (±Standard Error of the Mean)” value (GAF Conc. 2X plus metal 25 μM) was 1.00 ± 0.00, the “POA BIOASSAY SCORES (±Standard Error of the Mean)” value (GAF Conc. 2X plus metal 50 μM) was 1.00 ± 0.00 and the “POA BIOASSAY SCORES (±Standard Error of the Mean)” value (GAF Conc. 2X plus metal 100 μM) was 1.00 ± 0.00. The “POA BIOASSAY SCORES (±Standard Error of the Mean)” value (GAF Conc. 2X plus metal 200 μM) was 1.00 ± 0.00.

`NC(=O)CC[C@H](N)C(=O)O` [Glutamine] was tested, and the “GERMINATION SCORE (±Standard Error of the Mean)” value [3] was 4.0 ± 0.0, the “GERMINATION SCORE (±Standard Error of the Mean)” value [4] was 4.0 ± 0.0 and the “GERMINATION SCORE (±Standard Error of the Mean)” value [5] was 3.7 ± 0.3. For the same compound, the “GERMINATION SCORE (±Standard Error of the Mean)” value [6] was 3.7 ± 0.3, the “GERMINATION SCORE (±Standard Error of the Mean)” value [7] was 4.0 ± 0.0 and the “GERMINATION SCORE (±Standard Error of the Mean)” value [8] was 1.4 ± 0.1. For the same compound, the “GERMINATION SCORE (±Standard Error of the Mean)” value [9] was 1.8 ± 0.2, the “GERMINATION SCORE (±Standard Error of the Mean)” value [10] was 3.5 ± 0.3 and the “GERMINATION SCORE (±Standard Error of the Mean)” value [11] was 4.0 ± 0.0. The “GERMINATION SCORE (±Standard Error of the Mean)” value [12] was 4.0 ± 0.0 and the “reversal of the effects of GAF by amino acids, in words” value (in presence of WH6 culture filtrate) was “most effective”.

In the case of `[Fe]` [Iron], the “toxicity of trace metal in the Poa bioassay, in words” value (higher concentrations tested (up to 200 μM)) is reported as “slight toxicity”.

For `CC(C)C[C@H](N)C(=O)O` [Leucine], the “GERMINATION SCORE (±Standard Error of the Mean)” value [3] was 3.9 ± 0.2, the “GERMINATION SCORE (±Standard Error of the Mean)” value [4] was 4.0 ± 0.0 and the “GERMINATION SCORE (±Standard Error of the Mean)” value [5] was 3.6 ± 0.2. The “GERMINATION SCORE (±Standard Error of the Mean)” value [6] was 3.0 ± 0.0, the “GERMINATION SCORE (±Standard Error of the Mean)” value [7] was 1.7 ± 0.1 and the “GERMINATION SCORE (±Standard Error of the Mean)” value [8] was 1.5 ± 0.0. For the same compound, the “GERMINATION SCORE (±Standard Error of the Mean)” value [9] was 1.5 ± 0.3, the “GERMINATION SCORE (±Standard Error of the Mean)” value [10] was 3.6 ± 0.1 and the “GERMINATION SCORE (±Standard Error of the Mean)” value [11] was 3.4 ± 0.1. The “GERMINATION SCORE (±Standard Error of the Mean)” value [12] was 2.8 ± 0.1.

With `[Cl][Ni][Cl]` [NiCl2] the “POA BIOASSAY SCORES (±Standard Error of the Mean)” value [1] was 2.78 ± 0.05, the “POA BIOASSAY SCORES (±Standard Error of the Mean)” value (GAF Conc. 0, metal 25 μM) was 2.47 ± 0.10 and the “POA BIOASSAY SCORES (±Standard Error of the Mean)” value (GAF Conc. 0, metal 50 μM) was 1.78 ± 0.09. For the same compound, the “POA BIOASSAY SCORES (±Standard Error of the Mean)” value (GAF Conc. 0, metal 100 μM) was 1.44 ± 0.06, the “POA BIOASSAY SCORES (±Standard Error of the Mean)” value (GAF Conc. 0, metal 200 μM) was 1.00 ± 0.00 and the “POA BIOASSAY SCORES (±Standard Error of the Mean)” value [2] was 1.00 ± 0.00. For the same compound, the “POA BIOASSAY SCORES (±Standard Error of the Mean)” value (GAF Conc. 2X plus metal 25 μM) was 1.00 ± 0.00, the “POA BIOASSAY SCORES (±Standard Error of the Mean)” value (GAF Conc. 2X plus metal 50 μM) was 1.00 ± 0.00 and the “POA BIOASSAY SCORES (±Standard Error of the Mean)” value (GAF Conc. 2X plus metal 100 μM) was 1.00 ± 0.00. For the same compound, the “POA BIOASSAY SCORES (±Standard Error of the Mean)” value (GAF Conc. 2X plus metal 200 μM) was 1.00 ± 0.00.

In the case of `[Cl-].[Cl-].[Zn+2]` [ZnCl2], the “POA BIOASSAY SCORES (±Standard Error of the Mean)” value [1] is reported as 4.00 ± 0.00, the “POA BIOASSAY SCORES (±Standard Error of the Mean)” value (GAF Conc. 0, metal 25 μM) is reported as 4.00 ± 0.00 and the “POA BIOASSAY SCORES (±Standard Error of the Mean)” value (GAF Conc. 0, metal 50 μM) is reported as 4.00 ± 0.00. For the same compound, the “POA BIOASSAY SCORES (±Standard Error of the Mean)” value (GAF Conc. 0, metal 100 μM) was 3.5 ± 0.00, the “POA BIOASSAY SCORES (±Standard Error of the Mean)” value (GAF Conc. 0, metal 200 μM) was 3.00 ± 0.00 and the “POA BIOASSAY SCORES (±Standard Error of the Mean)” value [2] was 1.00 ± 0.00. For the same compound, the “POA BIOASSAY SCORES (±Standard Error of the Mean)” value (GAF Conc. 2X plus metal 25 μM) was 1.00 ± 0.00, the “POA BIOASSAY SCORES (±Standard Error of the Mean)” value (GAF Conc. 2X plus metal 50 μM) was 1.00 ± 0.00 and the “POA BIOASSAY SCORES (±Standard Error of the Mean)” value (GAF Conc. 2X plus metal 100 μM) was 1.00 ± 0.00. For the same compound, the “POA BIOASSAY SCORES (±Standard Error of the Mean)” value (GAF Conc. 2X plus metal 200 μM) was 1.00 ± 0.00.
